Test results taken from paper PMC8668183 (Biomedicine & Pharmacotherapy, 2021).
Structures can show the parent of a compound that is named as a salt. Where two headings read alike, the source gives them in different places.

Key:
SARS-CoV-2 [1] = conditions: human lung cells; cited from earlier work
SARS-CoV-2 [2] = conditions: human prostate cells; cited from earlier work
SARS-CoV-2 [3] = conditions: cited from earlier work
CYP2C9 = CYP2C9 (Homo sapiens, UniProt P11712); experiment: Fluorometric CYP2C9 activity assay in human liver microsomes; type: in vitro ADME; conditions: reference inhibitor at 60 µM, human hepatic microsomes
CYP1A2 = target: T1, CYP1A2 (Homo sapiens, UniProt P05177); experiment: Fluorometric CYP1A2 activity assay in human liver microsomes; type: in vitro ADME; conditions: reference inhibitor at 6 µM, human hepatic microsomes
T1 sequence (P05177 1-516): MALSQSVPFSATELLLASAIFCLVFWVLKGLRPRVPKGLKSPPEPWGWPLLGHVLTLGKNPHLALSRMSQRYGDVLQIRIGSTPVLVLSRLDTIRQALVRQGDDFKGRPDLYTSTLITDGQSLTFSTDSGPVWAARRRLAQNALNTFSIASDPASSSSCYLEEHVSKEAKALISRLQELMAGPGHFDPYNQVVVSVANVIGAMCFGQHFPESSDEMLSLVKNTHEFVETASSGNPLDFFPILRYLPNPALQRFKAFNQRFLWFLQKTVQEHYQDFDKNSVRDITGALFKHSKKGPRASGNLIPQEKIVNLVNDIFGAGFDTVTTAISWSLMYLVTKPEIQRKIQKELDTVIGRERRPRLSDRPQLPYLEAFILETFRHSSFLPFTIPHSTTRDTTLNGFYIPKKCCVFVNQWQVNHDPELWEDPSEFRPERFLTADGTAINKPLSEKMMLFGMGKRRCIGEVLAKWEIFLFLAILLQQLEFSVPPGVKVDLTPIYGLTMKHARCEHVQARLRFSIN

Chain of CYP2C9 (P11712 whole entry): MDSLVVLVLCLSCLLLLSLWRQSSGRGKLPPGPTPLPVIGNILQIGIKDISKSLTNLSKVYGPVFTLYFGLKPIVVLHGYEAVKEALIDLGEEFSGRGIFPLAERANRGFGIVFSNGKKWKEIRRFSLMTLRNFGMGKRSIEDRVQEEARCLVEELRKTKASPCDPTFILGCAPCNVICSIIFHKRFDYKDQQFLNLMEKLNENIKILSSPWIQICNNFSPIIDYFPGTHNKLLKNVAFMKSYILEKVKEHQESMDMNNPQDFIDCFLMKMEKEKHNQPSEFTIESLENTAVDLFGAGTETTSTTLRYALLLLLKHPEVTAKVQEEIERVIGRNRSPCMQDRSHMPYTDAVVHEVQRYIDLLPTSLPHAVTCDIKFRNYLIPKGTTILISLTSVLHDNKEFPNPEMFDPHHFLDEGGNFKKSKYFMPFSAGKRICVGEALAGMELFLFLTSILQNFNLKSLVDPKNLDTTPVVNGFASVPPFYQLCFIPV

CNC(=O)c1ccc(N2C(=S)N(c3ccc(C#N)c(C(F)(F)F)c3)C(=O)C2(C)C)cc1F [enzalutamide]
SARS-CoV-2 infection (SARS-CoV-2 [1]): not in human lung cells | SARS-CoV-2 infection (SARS-CoV-2 [2]): suppressed mainly in human prostate cells

N=C(N)c1ccc2cc(OC(=O)c3ccc(N=C(N)N)cc3)ccc2c1 [nafamostat mesylate]
S protein-mediated fusion and SARS-CoV-2 entry into Calu-3 cells (SARS-CoV-2 [3]): could block successfully

O=C(O)COc1ccc(C(=O)c2cccs2)c(Cl)c1Cl [tienilic acid]
effect on CYP2C9 activity (CYP2C9): inhibited

O=c1cc(-c2ccccc2)oc2c1ccc1ccccc12 [α-naphthoflavone]
effect on CYP1A2 activity (CYP1A2): suppressed significantly
